Results taken from patent US7919458B2, “Method of inhibiting prostate cancer cell proliferation” (Scott, Kieran, Francis, priority 2002, dated 2011).
Non-standard residues stand in square brackets, D forms with d. 2Nal = N[C@@H](Cc1ccc2ccccc2c1)C(=O)O

T1: human sPLA2-IIA (Homo sapiens, UniProt P14555)
T1 sequence (P14555 21-144): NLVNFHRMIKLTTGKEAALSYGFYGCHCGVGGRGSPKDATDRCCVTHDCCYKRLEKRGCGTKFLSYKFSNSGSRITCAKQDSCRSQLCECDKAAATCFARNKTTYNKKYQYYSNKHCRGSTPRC

B1: sPLA2-IIA: human recombinant sPLA2-IIA purified from Chinese hamster ovary cell conditioned media (protein, listed as Homo sapiens)
chain: MKTLLLLAVIMIFGLLQAHGNLVNFHRMIKLTTGKEAALSYGFYGCHCGVGGRGSPKDATDRCCVTHDCCYKRLEKRGCGTKFLSYKFSNSGSRITCAKQDSCRSQLCECDKAAATCFARNKTTYNKKYQYYSNKHCRGSTPRC

Tests used:
LNCaP = experiment: MTS cell growth assay, unstimulated LNCaP cells; assay type: cell-based, human; conditions: 72 hours; for Proliferation of unstimulated LNCaP cells: 1-100 nM, endogenous sPLA2-IIA; for Smallest effective dose, LNCaP proliferation: doses 1-100 nM
Experimental: (§1) FIG. 4. Effect of sPLA2-IIA inhibition on unstimulated prostate cancer cells. (A) The endogenous expression of sPLA2-IIA mRNA was evaluated by RT-PCR in three unstimulated prostate cancer cell lines (LNCaP, DU145 and PC-3) grown in RPMI containing 5% FCS. HPRT was used to as a positive control for RNA integrity and loading. (B) Cells were grown in RPMI with 5% FCS were then treated for 72 hours in the presence and absence of the sPLA2-IIA inhibitor c(2Nap)LS(2Nap)R and cell number determined by MTS assay as described in Materials and Methods. Data are mean±SD of quadruplicate determinations expressed as percentages relative to untreated control cells (100%). LNCaP, closed bars, OD495 untreated cells 0.50±0.03; DU145, open bars, OD495 untreated cells 0.73±0.05; PC-3, hatched bars, OD495 untreated cells, 0.66±0.01. *p<0.05 vs untreated control by one-way ANOVA.
(§2) Cell Lines and Culture. The LNCaP, DU145 and PC3 cell lines were purchased from American Type Culture Collection (Rockville, Md.). All cell cultures were maintained in RPMI 1640 supplemented with 5% FBS for LNCaP and 10% FBS for DU145 and PC3 at 37° C. in a humidified environment of 5% CO2. For experiments with addition of androgens, cells were cultured in RPMI 1640 without phenol red and supplemented with same concentration of charcoal stripped FBS. For experiments described in this article, we used cells between passage 30 and 45 for LNCaP, 65 and 80 for DU145 and 25 and 40 for PC3.
(§3) Cell growth assay. Cells were plated at 1×10^4 per well in 96-well plates with 0.1 ml of FBS-supplemented RPMI. After reaching 70-80% confluence (about 48 hours), the medium was changed to that containing various treatments for 3 days. After treatment, the number of viable cells was determined using the MTS assay (CellTiter 96® AQueous Assay; Promega, Madison, Wis.). In brief, 20 ul of MTS solution was added to each well and cells were incubated for 1 h. The absorbance at 490 nm was measured with an ELISA microplate reader. Each experiment was performed in quadruplicate and repeated at least three times.
(§4) To test the effect of blocking endogenous sPLA2-IIA on cell growth, we firstly determined the basal mRNA levels of sPLA2-IIA in 3 human prostate cancer cell lines. The androgen-independent cell lines PC-3 and DU145 cells were included in the study to also exclude a possible general toxicity of the inhibitors. mRNA encoding sPLA2-IIA was undetectable in DU-145 compared with LNCaP and PC-3 cells (FIG. 4A). We then tested the effect of individual inhibitors cFLSYR (SEQ ID NO: 6) and c(2Nap)LS(2Nap) R on cell growth over a range of doses (1-100 nM). […] The low but effective dosage and its specificity for cell lines containing endogenous sPLA2-IIA only, indicate that non-specific cell toxicity is not likely to explain the inhibitory effect.

PC-3 = experiment: MTS cell growth assay, unstimulated PC-3 cells; assay type: cell-based, human; conditions: 72 hours; for Proliferation of unstimulated PC-3 cells: 1-100 nM, endogenous sPLA2-IIA; for Smallest effective dose, PC-3 proliferation: doses 1-100 nM
Experimental: as §1, §2, §3, §4

DU145 = experiment: MTS cell growth assay, unstimulated DU145 cells; assay type: cell-based, human; conditions: 1-100 nM, 72 hours, sPLA2-IIA mRNA undetectable
Experimental: as §1
Cell Lines and Culture. The LNCaP, DU145 and PC3 cell lines were purchased from American Type Culture Collection (Rockville, Md.). […]
(§5) Cell growth assay. […] After treatment, the number of viable cells was determined using the MTS assay (CellTiter 96® AQueous Assay; Promega, Madison, Wis.). […] The absorbance at 490 nm was measured with an ELISA microplate reader. […]
To test the effect of blocking endogenous sPLA2-IIA on cell growth, we firstly determined the basal mRNA levels of sPLA2-IIA in 3 human prostate cancer cell lines. […]

human sPLA2-IIA = target: T1, human sPLA2-IIA; conditions: previously published work (Tseng et al. 1996; Church et al. 2001); cited from earlier work
LNCaP cells [1] = experiment: MTS cell growth assay, inhibition of sPLA2-IIA-stimulated LNCaP proliferation; assay type: cell-based, human; conditions: fixed sPLA2-IIA (1 nM), 72 hours, increasing inhibitor concentrations
Experimental: (§6) FIG. 2. Effect of exogenous addition of sPLA2-IIA on prostate cell growth. LNCaP cells were grown in RPMI with 5% FCS and treated for 72 hours in media containing (A) increasing concentrations of sPLA2-IIA alone (closed bars) or increasing concentrations of the activity-dead sPLA2-IIA mutant H48Q. (B) a fixed concentration of sPLA2-IIA and increasing concentrations of the sPLA2-IIA inhibitor cFLSYR (SEQ ID NO: 6). Cell number relative to untreated control cells was determined by the MTS assay as described in Materials and Methods. Data are Mean±SD of quadruplicate determinations normalised to 100% for untreated cells. OD495 of unstimulated cells was 0.29±0.06 for sPLA2-IIA and 0.24±0.03 for the sPLA2-IIA mutant experiments in panel A and 0.24±0.03 for panel B. *p<0.05 vs untreated control by one-way ANOVA. Data are representative of three separate experiments. (C). […]
FIG. 3. […] Cell number was determined by the MTS assay as described in Materials and Methods. Data are mean±SD of quadruplicate determinations expressed as percentages relative to untreated control cells (100%) (open bar). […]
as §5

LNCaP cells [2] = experiment: Flow cytometric cell cycle analysis (propidium iodide) of LNCaP cells; assay type: cell-based, human
Experimental: FIG. 2. Effect of exogenous addition of sPLA2-IIA on prostate cell growth. LNCaP cells were grown in RPMI with 5% FCS and treated for 72 hours in media containing (A) increasing concentrations of sPLA2-IIA alone (closed bars) or increasing concentrations of the activity-dead sPLA2-IIA mutant H48Q. (B) a fixed concentration of sPLA2-IIA and increasing concentrations of the sPLA2-IIA inhibitor cFLSYR (SEQ ID NO: 6). Cell number relative to untreated control cells was determined by the MTS assay as described in Materials and Methods. Data are Mean±SD of quadruplicate determinations normalised to 100% for untreated cells. OD495 of unstimulated cells was 0.29±0.06 for sPLA2-IIA and 0.24±0.03 for the sPLA2-IIA mutant experiments in panel A and 0.24±0.03 for panel B. *p<0.05 vs untreated control by one-way ANOVA. Data are representative of three separate experiments. (C). LNCaP cells were grown as above and stimulated for 72 hours with sPLA2-IIA (1 nM) in the absence (dotted lines) and presence (solid lines) of the sPLA2-IIA inhibitor cFLSYR (SEQ ID NO: 6) (100 nM). Cells (1×10^6) were assayed by flow cytometry following treatment with propidium iodide as described in Materials and Methods. Statistical analysis was performed on 10,000 events per sample. Data are representative of three separate experiments.
Flow Cytometric Analysis. Cells were seeded in 25 ml flasks in conditions as described above. Following treatment, trypsinization and cell counting, LNCaP cells (1×10^6) were suspended in 1 mL PBS and incubated with 0.2 mL 0.4% Triton® X-100 for 5 min at R/T in the presence of 50 μL of propidium iodide solution (50 μg/mL) and 20 μL of ribonuclease (10 mg/mL). DNA content per cell was measured by flow cytometry using an FACScalibur® flow cytometer and CellQuest® software (Becton Dickinson, Franklin Lakes, N.J.). Statistical analysis was performed on 10,000 events per sample.
We next used flow cytometric analysis to determine how sPLA2-IIA affects the distribution of LNCaP cells in different phases of the cell cycle. […]

LNCaP cells [3] = experiment: MTS cell growth assay, exogenous sPLA2-IIA added to LNCaP cells; assay type: cell-based, human; conditions: 72 hours
Experimental: as §6, §5
To examine the biological relevance of sPLA2-IIA to prostate cancer cell growth, we treated LNCaP cells with increasing doses of human recombinant sPLA2-IIA and monitored cell growth. […]

Molecule	Proliferation of unstimulated LNCaP cells (LNCaP)	Smallest effective dose, LNCaP proliferation (LNCaP)	Proliferation of unstimulated PC-3 cells (PC-3)	Smallest effective dose, PC-3 proliferation (PC-3)	Effect on unstimulated DU145 cell growth (DU145)	Inhibition of human sPLA2-IIA in in vitro activity assays (human sPLA2-IIA)	Effect on sPLA2-IIA-stimulated LNCaP cell number/growth (LNCaP cells [1])	Proportion of cells in G1 and G2 phase with sPLA2-IIA plus inhibitor (LNCaP cells [2]; sPLA2-IIA 1 nM plus cFLSYR 100 nM, 72 hours)	Lowest dose stimulating LNCaP cell growth (LNCaP cells [3]; MTS assay)	Effect of exogenously added protein on LNCaP cell growth (MTS) (LNCaP cells [3]; RPMI with 5% FCS, relative to untreated cells)	Proportion of LNCaP cells in G1 phase (LNCaP cells [2]; sPLA2-IIA containing medium (1 nM), 72 hours, untreated 74%)	Proportion of LNCaP cells in G2/M phase (LNCaP cells [2]; sPLA2-IIA containing medium, in comparison to untreated cells)
c(2NapA)LS(2NapA)R: cyclic peptide where F and Y are substituted with 2-naphthylalanine; sPLA2-IIA inhibitor (cyclo([2Nal]LS[2Nal]R); SMILES CC(C)C[C@@H]1NC(=O)[C@H](Cc2ccc3ccccc3c2)NC(=O)[C@H](CCCNC(=N)N)NC(=O)[C@H](Cc2ccc3ccccc3c2)NC(=O)[C@H](CO)NC1=O)	significantly decreased	1 nM	significantly decreased	1 nM	neither of the inhibitors had an effect	significant improvement in potency over linear peptides						
cFLSYR: cyclic peptide FLSYR, sPLA2-IIA inhibitor derived from residues 70-74 of human sPLA2-IIA (cyclic)	significantly decreased	1 nM	significantly decreased	1 nM	neither of the inhibitors had an effect	significant improvement in potency over linear peptides	completely blocked	returned to basal levels				
B1									1 nM	dose-dependently stimulated LNCaP cell growth	62%	increase
